Laboratory results taken from patent US8435984B2, “Tertiary amine substituted peptides useful as inhibitors of HCV replication” (Achillion Pharmaceuticals, Inc., priority 2007, dated 2013).

system: HCV replicon; assay: HCV replicon replication assay (NPT ELISA) in Huh-7 replicon-containing cells; type: cell-based, Hepatitis C virus; conditions: Hepatitis C virus, 72 h; inhibition of HCV replicon replication, Huh-7 HCV replicon-containing cells, three days
Experimental: Compounds claimed herein are tested for the ability to inhibit viral replication of the Hepatitis C replicon in cultured cells in which the HCV replicon construct has been incorporated. The HCV replicon system was described by Bartenschlager, et. al (Science, 285, pp. 110-113 (1999)). The replicon system is predictive of in vivo anti-HCV activity; compounds that are active in humans uniformly evidence activity in the replicon assay.
In this assay HCV replicon containing cells are treated with different concentrations of the test compound to ascertain the ability of the test compound to suppress replication of the HCV replicon. As a positive control, HCV replicon-containing cells are treated with different concentrations of interferon alpha, a known inhibitor of HCV replication. The replicon assay system includes Neomycin Phosphotransferase (NPT) as a component of the replicon itself in order to detect the transcription of replicon gene products in the host cell. Cells in which the HCV replicon is actively replicating have high levels of NPT; the level of NPT is proportional to HCV replication. […] The NPT level of each sample is measured using a captured ELISA.
The HCV replicon contains, 5′-3′, the HCV-IRES, the neomycin phosphotransferase (neo) gene, the IRES of encephalomyocarditis virus, which directs translation of HCV sequences NS3 to NS5B, and the 3′-NTR. The sequence of the HCV replicon has been deposited in GenBank (Accession no. AJ242652).
The replicon is transfected into Huh-7 cells using standard methods such as electroporation.
HCV replicon-containing cells are rinsed with once PBS once; 2 mls of trypsin are then added. Cells are incubated at 37° C. in a 5% CO2 incubator for 3-5 minutes. 10 mls of complete medium is added to stop the reaction. Cells are blown gently, put into a 15 ml tube, and spun at 1200 rpm for four minutes. The trypsin/medium solution is removed and 5 mls of medium (500 ml DMEM (high glucose)) from BRL catalog #12430-054; 50 mls 10% FBS, 5% Geneticin G418 (50 mg/ml, BRL catalog #10131-035), 5 ml MEM non-essential amino acids (100×BRL #11140-050) and 5 ml pen-strep (BRL #15140-148) is added. The cells and media are mixed carefully
Cells are plated with screening medium (500 ml DMEM (BRL #21063-029), 50 ml FBS (BRL #10082-147) and 5 ml MEM non-essential amino acid (BRL #11140-050) at 6000-7500 cells/100 μl/well of 96 well plate (6-7.5×10^5 cells/10 ml/plate). Plates are placed into 37° C. 5% CO2 incubator overnight. 6D. Assay
The following morning, drugs (test compounds or interferon alpha) are diluted in 96 well U bottom plates with media or DMSO/media, depending on the final concentration chosen for screening. Generally for 6 concentrations of each test compounds ranging from 10 micromolar to 0.03 micromolar are applied. 100 μl of the test compound dilution is placed in wells of the 96 well plate containing the HCV replicon cells. Media without drug is added to some wells as a negative controls. DMSO is known to affect cell growth. Therefore, if drugs diluted in DMSO are used, all wells, including negative control (media only) and positive control (interferon alpha) wells, must contain the same concentration of DMSO, for single dose screening. The plates are incubated at 37° C. in a humidified 5% CO2 environment for three days.
On day four, the NTPII assay is quantitated. The medium is poured from the plates and the plates are washed once in 200 μl of PBS. The PBS is then decanted and the plates tapped in a paper towel to remove any remaining PBS. Cells are fixed in situ with 100 id/well of pre-cooled (−20° C.) methanol:acetone (1:1) and the plates are placed at −20° C. for 30 minutes.
The fixing solution is poured from the plates and the plates allowed to air-dry completely (approximately one hour). The appearance of the dried cell layer is recorded and the density of the cells in the toxic wells is scored with the naked eye. […]

First: C=CC1CC1(NC(=O)[C@@H]1C[C@@H](Oc2cc(-c3ccccc3)nc3cc(OC)ccc23)CN1C(=O)[C@H](C(C)C)N1CCCCC1)C(=O)O (stereo partly drawn) [Compound 57, 1-((2S,4R)-4-(7-methoxy-2-phenylquinolin-4-yloxy)-1-((S)-3-methyl-2-(piperidin-1-yl)butanoyl)pyrrolidine-2-carboxamido)-2-vinylcyclopropanecarboxylic acid]
Second: C=CC1CC1(NC(=O)[C@@H]1C[C@@H](Oc2cc(-c3ccccc3)nc3cc(OC)ccc23)CN1C(=O)[C@H](C)N1CCCCC1)C(=O)O (stereo partly drawn) [Compound 59, 1-((2S,4R)-4-(7-methoxy-2-phenylquinolin-4-yloxy)-1-((S)-2-(piperidin-1-yl)propanoyl)pyrrolidine-2-carboxamido)-2-vinylcyclopropanecarboxylic acid]
The EC50 of the first is lower: less than 100 µM for the first, greater than 100 µM for the second.

C=CC1CC1(NC(=O)[C@@H]1C[C@@H](Oc2cc(-c3ccccc3)nc3cc(OC)ccc23)CN1C(=O)[C@H](C1CCCCC1)N1CCCCC1)C(=O)O (stereo partly drawn) [Compound 58, 1-((2S,4R)-1-((S)-2-cyclohexyl-2-(piperidin-1-yl)acetyl)-4-(7-methoxy-2-phenylquinolin-4-yloxy)pyrrolidine-2-carboxamido)-2-vinylcyclopropanecarboxylic acid] and C=CC1CC1(NC(=O)[C@@H]1C[C@@H](Oc2cc(-c3ccccc3)nc3cc(OC)ccc23)CN1C(=O)[C@H](C1CCCCC1)N1CCCCC1)C(=O)NS(=O)(=O)C1CC1 (stereo partly drawn) [Compound 64, (2S,4R)-1-((S)-2-cyclohexyl-2-(piperidin-1-yl)acetyl)-N-(1-(cyclopropylsulfonylcarbamoyl)-2-vinylcyclopropyl)-4-(7-methoxy-2-phenylquinolin-4-yloxy)pyrrolidine-2-carboxamide] cannot be ordered by EC50: less than 100 µM for the first, less than 100 µM for the second.

CCOC(=O)C12CC1/C=C\CCCCC[C@H](N1CCCCC1)C(=O)N1C[C@H](Oc3cc(-c4ccccc4)nc4cc(OC)ccc34)C[C@H]1C(=O)N2 (stereo partly drawn) [Compound 60, (2R,6S,16aS,Z)-ethyl 2-(7-methoxy-2-phenylquinolin-4-yloxy)-5,16-dioxo-6-(piperidin-1-yl)-1,2,3,5,6,7,8,9,10,11,13a,14,14a, 15,16,16a-hexadecahydrocyclopropa [e]pyrrolo[1,2-a] [1,4]diazacyclopentadecine-14a-carboxylatc] and CCOC(=O)[C@]12C[C@@H]1/C=C\CCCCC[C@H](N1CCCCC1)C(=O)N1C[C@H](Oc3cc(-c4ccccc4)nc4cc(OC)ccc34)C[C@H]1C(=O)N2 [Compound 62, (2R,6S,13aR,14aS,16aS,Z)-ethyl 2-(7-methoxy-2-phenylquinolin-4-yloxy)-5,16-dioxo-6-(piperidin-1-yl)-1,2,3,5,6,7,8,9,10,11,13a,14,14a, 15,16,16a-hexadecahydrocyclopropa [e]pyrrolo[1,2-a] [1,4]diazacyclopentadecine-14a-carboxylate] cannot be ordered by EC50: less than 100 µM for the first, less than 100 µM for the second.

COc1ccc2c(O[C@@H]3C[C@H]4C(=O)NC5(C(=O)O)CC5/C=C\CCCCC[C@H](N5CCCCC5)C(=O)N4C3)cc(-c3ccccc3)nc2c1 (stereo partly drawn) [Compound 61, (2R,6S,16aS,Z)-2-(7-methoxy-2-phenylquinolin-4-yloxy)-5,16-dioxo-6-(pipcridin-1-yl)-1,2,3,5,6,7,8,9,10,11,13a,14,14a, 15,16,16a-hexadecahydrocyclopropa [e]pyrrolo[1,2-a] [1,4]diazacyclopentadecine-14a-carboxylic acid] and CCOC(=O)[C@@]12C[C@H]1/C=C\CCCCC[C@H](N1CCCCC1)C(=O)N1C[C@H](Oc3cc(-c4ccccc4)nc4cc(OC)ccc34)C[C@H]1C(=O)N2 [Compound 63, (2R,6S,13aS,14aR,16aS,Z)-ethyl 2-(7-methoxy-2-phenylquinolin-4-yloxy)-5,16-dioxo-6-(piperidin-1-yl)-1,2,3,5,6,7,8,9,10,11,13a,14,14a, 15,16,16a-hexadecahydrocyclopropa [e]pyrrolo[1,2-a] [1,4]diazacyclopentadecine-14a-carboxylate] cannot be ordered by EC50: less than 100 µM for the first, less than 100 µM for the second.
